Experiment [1] deals with E. coli B2 (mcr-1 + blaNDM-5). Nature of the experiment: microbe, parasite or virus in culture. The format is cell-based, Escherichia coli. On the procedure:
(§1) The MICs of all drugs were determined by micro-broth dilution method according to CLSI 2018 guidelines. The bacterial suspension used in the experiment was appropriate 1.5 × 10^6 colony-forming units (CFUs) per mL and mixed with the drug solution in a sterilized 96-well microtiter plate (Corning, New York, USA), then incubated at 37 °C for 16–18 h. MIC value was defined as the minimum drug concentration without visible bacteria. Meanwhile, the density of the bacteria at 600 nm was measured, and the corresponding IC50 was calculated using log (inhibitor) vs. response variable slope (four parameters) in Graphpad Prism version 8.3.0 software (San Diego, CA, USA). To assess the role of ROS production in the antibacterial activity of WW307, increasing concentrations of N-acetylcysteine (NAC) from 0 to 5 mM were added in culture medium, followed by MICs test.

The subject of experiment [2] is E. coli 1F28 (tet(X4)). Nature of the experiment: microbe, parasite or virus in culture. The format is cell-based, Escherichia coli. The conditions noted are these: micro-broth dilution, CLSI 2018, ~1.5 × 10^6 CFUs per mL, 37 °C, 16–18 h. On the procedure:
as §1

For experiment [3], the system named is E. coli G92 (mcr-1). Nature of the experiment: microbe, parasite or virus in culture. Type of experiment: cell-based, Escherichia coli. On the procedure: as §1
The test system of experiment [4] is P. cibarius HNCF44W (blaNDM-1 + tet(X6)). Nature of the experiment: MIC / IC50, micro-broth dilution. The conditions noted are these: micro-broth dilution, CLSI 2018, ~1.5 × 10^6 CFUs per mL, 37 °C, 16–18 h. Type of experiment: cell-based. On the procedure:
as §1
On the technique in general: In broth dilution the organism is exposed to a series of concentrations in liquid medium.

The test system of experiment [5] is MRSA T144. Put plainly: microbe, parasite or virus in culture. Conditions: micro-broth dilution, CLSI 2018, ~1.5 × 10^6 CFUs per mL, 37 °C, 16–18 h. The format is cell-based, Staphylococcus aureus. As for the experimental part: as §1
The subject of experiment [6] is S. aureus G16 (RIF^R). Put plainly: microbe, parasite or virus in culture. The format is cell-based, Staphylococcus aureus. On the procedure: as §1
Experiment [7] concerns E. coli G6 (blaNDM-5). Put plainly: MIC / IC50, micro-broth dilution. The conditions noted are these: micro-broth dilution, CLSI 2018, ~1.5 × 10^6 CFUs per mL, 37 °C, 16–18 h. The format is cell-based, Escherichia coli. On the procedure: as §1
The test system of experiment [8] is E. coli C3 (blaNDM-1). Nature of the experiment: MIC / IC50, micro-broth dilution. Type of experiment: cell-based, Escherichia coli. Conditions: micro-broth dilution, CLSI 2018, ~1.5 × 10^6 CFUs per mL, 37 °C, 16–18 h. On the procedure:
as §1

The subject of experiment [9] is E. coli CP131 (mcr-3). Nature of the experiment: MIC / IC50, micro-broth dilution. The format is cell-based, Escherichia coli. On the procedure:
as §1

The subject of experiment [10] is A. baumannii C222 (tet(X6)). Put plainly: microbe, parasite or virus in culture. The format is cell-based, Acinetobacter baumannii. On the procedure:
as §1

The mark [11] stands for this setting: Escherichia coli, read-out: MIC.
The mark [12] stands for this setting: Staphylococcus aureus, read-out: MIC.

In brackets after ≈: the same amount, converted by molar mass. Where two headings read alike, the source gives them in different places.

With `C[C@@H](O)[C@H]1C(=O)N2C(C(=O)O)=C(S[C@@H]3CN[C@H](C(=O)N(C)C)C3)[C@H](C)[C@H]12` [MEM, meropenem], the MIC in experiment [1] (Escherichia coli) was 32 µg/mL (≈ 83.4 µM); in [2] (setting [11]), 0.25 µg/mL (≈ 0.652 µM); in [3] (Escherichia coli) it was below 0.125 µg/mL; in [4] (read-out: MIC), above 16 µg/mL; in experiment [5] (setting [12]), 1 µg/mL (≈ 2.61 µM); in experiment [6] (Staphylococcus aureus) it was 2 µg/mL (≈ 5.22 µM). Moreover, the MIC in [7] (setting [11]) is 64 µg/mL (≈ 167 µM); in [8] (setting [11]), 8 µg/mL (≈ 20.9 µM); in experiment [9] (Escherichia coli), below 0.125 µg/mL; in experiment [10] (Acinetobacter baumannii), below 0.125 µg/mL.

Turning to `CN(C)c1cc(NC(=O)CNC(C)(C)C)c(O)c2c1C[C@H]1C[C@H]3[C@H](N(C)C)C(O)=C(C(N)=O)C(=O)[C@@]3(O)C(O)=C1C2=O` [TIG, tigecycline], the MIC was 16 µg/mL (≈ 27.3 µM) in experiment [2] (setting [11]); 4 µg/mL (≈ 6.83 µM) in experiment [3] (Escherichia coli); 64 µg/mL (≈ 109 µM) in experiment [4] (read-out: MIC); 0.25 µg/mL (≈ 0.427 µM) in experiment [5] (setting [12]); below 0.0625 µg/mL in experiment [6] (Staphylococcus aureus); 2 µg/mL (≈ 3.41 µM) in experiment [7] (setting [11]). Further, the MIC in experiment [8] (setting [11]) is 2 µg/mL (≈ 3.41 µM); in experiment [9] (Escherichia coli, E. coli CP131 (mcr-3), micro-broth dilution, CLSI 2018, ~1.5 × 10^6 CFUs per mL, 37 °C, 16–18 h, read-out: MIC) it was 2 µg/mL (≈ 3.41 µM); in experiment [10] (Acinetobacter baumannii), 64 µg/mL (≈ 109 µM).

For colistin, the MIC was 8 µg/mL in [1] (E. coli B2 (mcr-1 + blaNDM-5), micro-broth dilution, CLSI 2018, ~1.5 × 10^6 CFUs per mL, 37 °C, 16–18 h); 0.125 µg/mL in [2]; 4 µg/mL in experiment [3] (E. coli G92 (mcr-1), micro-broth dilution, CLSI 2018, ~1.5 × 10^6 CFUs per mL, 37 °C, 16–18 h); above 256 µg/mL in [4]; 16 µg/mL in experiment [5]; 1 µg/mL in experiment [6] (S. aureus G16 (RIF^R), micro-broth dilution, CLSI 2018, ~1.5 × 10^6 CFUs per mL, 37 °C, 16–18 h). The MIC in experiment [7] is 0.5 µg/mL; in experiment [8], below 0.125 µg/mL; in [9] (E. coli CP131 (mcr-3), micro-broth dilution, CLSI 2018, ~1.5 × 10^6 CFUs per mL, 37 °C, 16–18 h), 4 µg/mL; in [10] (A. baumannii C222 (tet(X6)), micro-broth dilution, CLSI 2018, ~1.5 × 10^6 CFUs per mL, 37 °C, 16–18 h), below 0.125 µg/mL.

These data come from PMC8063935, “Amphipathic Peptide Antibiotics with Potent Activity against Multidrug-Resistant Pathogens” (Pharmaceutics, 2021).
